Series [1] addresses FGFR3 (Homo sapiens, UniProt P22607). The series is described as follows: biochemical. The format is biochemical. The conditions noted are these: FGFR3-IC50.
Series [2] deals with FGFR3. The series is described as follows: biochemical. Type of series: biochemical.
A further series relates to NIH-3T3 cells. In words: WST-1 cytotoxicity assay. The format is cell-based, mouse. The conditions noted are these: Mus musculus, NIH3T3, 48 h, read-out: NIH-3T3 Cells IC50. A general note: Tetrazolium dyes change colour on reduction, which living cells bring about.
In series [3] the test system is FGFR2. In words: biochemical. The following applies: for FGFR selectivity (in words): among FGFR1-4.
The target of series [4] is FGFR2 (Homo sapiens, UniProt P21802). In words: biochemical. The conditions noted are these: FGFR2-IC50.
Chain of FGFR2 (Homo sapiens, UniProt P21802) (P21802 22-821): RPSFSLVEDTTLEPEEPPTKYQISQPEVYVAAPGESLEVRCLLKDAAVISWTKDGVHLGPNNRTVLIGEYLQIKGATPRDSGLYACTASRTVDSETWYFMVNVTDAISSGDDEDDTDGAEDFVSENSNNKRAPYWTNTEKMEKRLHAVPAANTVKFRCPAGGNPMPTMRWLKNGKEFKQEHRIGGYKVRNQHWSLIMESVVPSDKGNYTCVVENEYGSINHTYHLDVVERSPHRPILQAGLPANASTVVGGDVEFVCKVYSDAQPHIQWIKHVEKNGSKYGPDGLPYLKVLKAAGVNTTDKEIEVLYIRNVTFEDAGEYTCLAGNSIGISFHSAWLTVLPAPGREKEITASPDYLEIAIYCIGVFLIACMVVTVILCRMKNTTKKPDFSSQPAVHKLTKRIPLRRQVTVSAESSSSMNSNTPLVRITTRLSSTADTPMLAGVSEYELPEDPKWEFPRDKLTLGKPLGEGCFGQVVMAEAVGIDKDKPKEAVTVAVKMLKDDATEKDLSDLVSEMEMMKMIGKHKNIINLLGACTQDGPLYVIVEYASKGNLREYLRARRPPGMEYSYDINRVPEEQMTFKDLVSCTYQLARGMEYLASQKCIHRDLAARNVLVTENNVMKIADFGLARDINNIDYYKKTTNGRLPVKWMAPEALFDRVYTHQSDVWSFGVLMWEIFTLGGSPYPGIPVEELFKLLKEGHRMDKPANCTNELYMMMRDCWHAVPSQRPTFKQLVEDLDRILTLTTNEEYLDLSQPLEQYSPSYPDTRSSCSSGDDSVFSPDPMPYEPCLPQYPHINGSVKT
The next series addresses FGFR4 (Homo sapiens, UniProt P22455). In words: biochemical. Type of series: biochemical.
In series [5] the test system is FGFR1. In words: Z'-LYTE kinase enzyme inhibition assay, FGFR1. Type of series: biochemical. The conditions noted are these: for FGFR1-SI: selectivity index IC50/IC50, lowest IC50 of the compound = 1.
Series [6] concerns the target FGFR1 (Homo sapiens, UniProt P11362). In words: Z'-LYTE kinase enzyme inhibition assay, FGFR1. Type of series: biochemical. The following applies: FGFR1-IC50.
A short description of a further series: WST-1 cytotoxicity assay. The format is cell-based, mouse. The conditions noted are these: mouse, NIH-3T3 cells (mouse embryonic fibroblasts).
Setting [7] is: selectivity index IC50/IC50, lowest IC50 of the compound = 1.

Where two headings read alike, the source gives them in different places.

Chain of FGFR3 (Homo sapiens, UniProt P22607) (P22607 23-806): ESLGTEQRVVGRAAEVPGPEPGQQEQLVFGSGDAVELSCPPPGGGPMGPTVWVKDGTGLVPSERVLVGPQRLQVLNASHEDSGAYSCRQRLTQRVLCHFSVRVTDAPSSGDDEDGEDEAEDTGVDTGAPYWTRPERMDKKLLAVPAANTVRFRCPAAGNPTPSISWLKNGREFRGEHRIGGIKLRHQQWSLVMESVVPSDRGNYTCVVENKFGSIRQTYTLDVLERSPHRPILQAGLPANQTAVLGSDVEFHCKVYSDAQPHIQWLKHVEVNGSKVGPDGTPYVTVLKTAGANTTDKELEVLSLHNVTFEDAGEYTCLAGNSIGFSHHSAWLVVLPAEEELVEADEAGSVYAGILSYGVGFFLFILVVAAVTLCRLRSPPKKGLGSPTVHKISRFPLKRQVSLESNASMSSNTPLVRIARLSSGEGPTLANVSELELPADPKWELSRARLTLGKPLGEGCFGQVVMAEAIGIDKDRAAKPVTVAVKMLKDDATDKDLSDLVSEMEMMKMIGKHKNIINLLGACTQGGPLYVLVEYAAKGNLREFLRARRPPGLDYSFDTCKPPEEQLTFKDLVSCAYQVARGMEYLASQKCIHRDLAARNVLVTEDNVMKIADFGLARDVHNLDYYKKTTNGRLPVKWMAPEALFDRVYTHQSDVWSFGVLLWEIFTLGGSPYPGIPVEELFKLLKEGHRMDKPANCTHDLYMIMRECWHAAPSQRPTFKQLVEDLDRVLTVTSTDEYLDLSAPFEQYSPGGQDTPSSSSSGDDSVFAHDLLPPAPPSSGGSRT
Chain of FGFR4 (P22455 22-802): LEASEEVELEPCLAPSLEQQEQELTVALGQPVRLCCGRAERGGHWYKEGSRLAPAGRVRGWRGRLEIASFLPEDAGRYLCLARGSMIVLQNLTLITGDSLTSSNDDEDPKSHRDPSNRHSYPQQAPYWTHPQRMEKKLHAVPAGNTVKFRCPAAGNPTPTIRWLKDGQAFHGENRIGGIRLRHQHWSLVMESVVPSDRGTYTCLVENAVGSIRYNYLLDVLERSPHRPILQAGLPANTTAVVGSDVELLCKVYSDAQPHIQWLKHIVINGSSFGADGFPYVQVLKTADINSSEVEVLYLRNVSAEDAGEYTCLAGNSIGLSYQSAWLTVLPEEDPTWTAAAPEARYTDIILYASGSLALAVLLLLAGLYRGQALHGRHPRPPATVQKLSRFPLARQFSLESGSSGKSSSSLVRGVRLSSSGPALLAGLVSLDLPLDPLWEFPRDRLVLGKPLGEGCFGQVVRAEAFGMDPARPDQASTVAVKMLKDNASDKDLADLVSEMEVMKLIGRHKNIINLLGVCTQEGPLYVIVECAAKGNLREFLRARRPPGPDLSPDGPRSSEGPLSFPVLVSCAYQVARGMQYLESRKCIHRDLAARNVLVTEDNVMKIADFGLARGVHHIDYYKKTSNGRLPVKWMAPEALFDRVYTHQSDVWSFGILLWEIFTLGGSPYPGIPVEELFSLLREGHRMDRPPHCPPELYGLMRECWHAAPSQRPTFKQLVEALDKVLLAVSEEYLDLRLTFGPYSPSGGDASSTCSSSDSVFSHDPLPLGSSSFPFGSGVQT
Chain of FGFR1 (Homo sapiens, UniProt P11362) (P11362 22-822): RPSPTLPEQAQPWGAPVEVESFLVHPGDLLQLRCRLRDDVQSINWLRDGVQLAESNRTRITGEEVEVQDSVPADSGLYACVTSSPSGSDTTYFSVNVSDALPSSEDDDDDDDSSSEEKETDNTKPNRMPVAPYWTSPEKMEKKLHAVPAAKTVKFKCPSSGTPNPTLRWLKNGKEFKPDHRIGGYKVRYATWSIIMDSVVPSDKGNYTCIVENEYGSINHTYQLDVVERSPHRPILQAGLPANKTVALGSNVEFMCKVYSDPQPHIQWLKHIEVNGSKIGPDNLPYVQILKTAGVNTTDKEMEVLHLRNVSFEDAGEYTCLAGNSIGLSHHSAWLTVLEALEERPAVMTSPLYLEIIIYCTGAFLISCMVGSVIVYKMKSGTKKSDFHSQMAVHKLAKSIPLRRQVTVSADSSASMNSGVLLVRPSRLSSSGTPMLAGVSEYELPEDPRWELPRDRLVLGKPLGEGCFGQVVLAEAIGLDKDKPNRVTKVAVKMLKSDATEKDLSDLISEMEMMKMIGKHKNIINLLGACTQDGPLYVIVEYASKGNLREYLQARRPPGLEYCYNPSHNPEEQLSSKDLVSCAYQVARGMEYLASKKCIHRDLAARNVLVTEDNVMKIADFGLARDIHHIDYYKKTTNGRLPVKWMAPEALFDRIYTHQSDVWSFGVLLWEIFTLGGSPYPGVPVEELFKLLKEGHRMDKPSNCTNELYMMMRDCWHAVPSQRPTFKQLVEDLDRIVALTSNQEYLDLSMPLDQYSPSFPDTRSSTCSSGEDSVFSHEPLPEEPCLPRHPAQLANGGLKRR

`O=C1Nc2ccc(-c3ccc4cc(O)ccc4c3)cc2/C1=C\c1ccc(N2CCOCC2)cc1` [Compound A1, (E)-5-(6-hydroxynaphthalen-2-yl)-3-(4-morpholinobenzylidene)indolin-2-one]: the IC50 is 1420 ± 423 nM against FGFR3 [1]; 1580 ± 171 nM with NIH-3T3 cells; 5.95 nM against FGFR2 [4]; 37.1 ± 0.965 µM on FGFR4; 19.8 ± 3.32 nM at FGFR1 [6]. Moreover, the FGFR3-SI with FGFR3 [2] was 238.648. The “better inhibitory potency against FGFR2 than FGFR3” value in the series with FGFR3 [2] (FGFR3 in compare to FGFR2) is 238.6 fold. Moreover, the “FGFR selectivity (in words)” value in the series on FGFR2 [3] was “for FGFR2”. The FGFR2-SI in the series on FGFR2 [3] (setting [7]) is given as 1. The same molecule came in with an FGFR4-SI at FGFR4 of 6247.898. Further, the “better inhibitory potency against FGFR2 than FGFR4” value at FGFR4 (FGFR4 in compare to FGFR2) was found to be 6247.9 fold. Moreover, in the series on FGFR1 [5] (FGFR1 in compare to FGFR2), the “better inhibitory potency against FGFR2 than FGFR1” value is listed as 3.3 fold. This molecule also gave an FGFR1-SI in the series on FGFR1 [5] of 3.333.

With `O=C1Nc2ccc(-c3ccc(-c4ccc(O)cc4)cc3)cc2/C1=C\c1ccc(N2CCOCC2)cc1` [Compound A2, (E)-5-(4'-hydroxy-[1,1'-biphenyl]-4-yl)-3-(4-morpholinobenzylidene)indolin-2-one], the IC50 on FGFR3 [1] is 3460 ± 510 nM; in the series on NIH-3T3 cells, 949 ± 24.7 nM; against FGFR2 [4] it was 8.44 ± 0.237 nM; against FGFR4 it was 21.2 ± 0.351 µM; at FGFR1 [6] it was 219 ± 4.32 nM. Moreover, in the series on FGFR3 [2], the FGFR3-SI was determined as 409.791. Besides, the “FGFR selectivity (in words)” value in the series on FGFR2 [3] is on record as “for FGFR2”. For the same molecule, in the series with FGFR2 [3] (setting [7]), the FGFR2-SI worked out at 1. The molecule also yielded an FGFR4-SI on FGFR4 of 2514.228. In the series with FGFR1 [5], this molecule came in with an FGFR1-SI of 25.948.

With `CN1CCN(c2ccc(/C=C3/C(=O)Nc4ccc(-c5ccc6cc(O)ccc6c5)cc43)cc2)CC1` [Compound A13, (E)-5-(6-hydroxynaphthalen-2-yl)-3-[4-(4-methylpiperazin-1-yl)benzylidene]indolin-2-one], the 50% inhibitory concentration (IC50) against FGFR3 [1] was determined as 17100 ± 294 nM; in the series on NIH-3T3 cells, 30100 ± 3230 nM; on FGFR2 [4] it was 1020 ± 67.3 nM; at FGFR4 it was 8.99 ± 0.314 µM; against FGFR1 [6], 7 ± 0.206 nM. In the series on FGFR3 [2], this molecule displayed an FGFR3-SI of 2442.824. In addition, in “WST-1 cytotoxicity assay”, the IC50 at 48 h is > 1000 nM. Moreover, in the series on FGFR2 [3], the FGFR2-SI was found to be 146.083. Also, at FGFR4, the FGFR4-SI was found to be 1285.449. The “FGFR selectivity (in words)” value in the series with FGFR1 [5] (among FGFR1-4) was “selectivity to FGFR1”. For the same molecule, in the series on FGFR1 [5], the FGFR1-SI is given as 1.

Turning to `O=CN1CCN(c2ccc(/C=C3/C(=O)Nc4ccc(-c5ccc(C(=O)N6CCOCC6)cc5)cc43)cc2)CC1` [Compound A27, (E)-4-{4-{ {5-[4-(morpholine-4-carbonyl)phenyl]-2-oxoindolin-3-ylidene}methyl}phenyl}piperazine-1-carbaldehyde], the 50% inhibitory concentration (IC50) turned out to be 131 ± 4.23 nM at FGFR3 [1], 1230 ± 467 nM in the series with NIH-3T3 cells, 9.24 ± 0.265 µM at FGFR4 and 12 ± 0.736 nM against FGFR1 [6]. The molecule further showed an FGFR3-SI in the series on FGFR3 [2] of 10.962. Also, the IC50 at 48 h in “WST-1 cytotoxicity assay” was > 1000 nM. The molecule also gave an FGFR1-SI with FGFR1 [5] of 1.

One may read the IC50 as the point on the concentration scale where inhibition reaches its midpoint.

(Values after paper PMC6978637 (Saudi Pharmaceutical Journal : SPJ, 2019).)
